# Molecular target: T1, human Werner helicase (WRN-BV08, Uniprot Q14191, amino acids 517-1235 with L1074F point mutation) (Homo sapiens, UniProt Q14191, L1074F)
# T1 construct: Uniprot Q14191, amino acids 517-1235 with L1074F point mutation; TEV-cleavable 8×His (C, cleaved yes); made in house; host or cells: Sf9 insect cells (baculovirus)
# Experiment: WRN (BV08) ADP-Glo Assay
# Assay type: biochemical
# Conditions: 0.15 nM WRN, 5 μM ATP, 0.1 nM DNA duplex, 15 min preincubation, 60 min at 25° C., pH 7.5, 1% DMSO; read-out: ADP-Glo_hWRN_IC50
# Summary of the method: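 ADP produced by WRN helicase fragment 517-1235 (L1074F, baculovirus/Sf9, untagged) read by ADP-Glo luminescence after 60 min at 25 °C with 5 μM ATP and 0.1 nM duplex DNA, following 15 min compound preincubation. Final enzyme 0.15 nM in Bicine pH 7.5 buffer, 1% DMSO; 20 μM NSC-617145 defined full inhibition.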
# T1 sequence (Q14191 with tags, fused parts or gaps L1074F limits assumed): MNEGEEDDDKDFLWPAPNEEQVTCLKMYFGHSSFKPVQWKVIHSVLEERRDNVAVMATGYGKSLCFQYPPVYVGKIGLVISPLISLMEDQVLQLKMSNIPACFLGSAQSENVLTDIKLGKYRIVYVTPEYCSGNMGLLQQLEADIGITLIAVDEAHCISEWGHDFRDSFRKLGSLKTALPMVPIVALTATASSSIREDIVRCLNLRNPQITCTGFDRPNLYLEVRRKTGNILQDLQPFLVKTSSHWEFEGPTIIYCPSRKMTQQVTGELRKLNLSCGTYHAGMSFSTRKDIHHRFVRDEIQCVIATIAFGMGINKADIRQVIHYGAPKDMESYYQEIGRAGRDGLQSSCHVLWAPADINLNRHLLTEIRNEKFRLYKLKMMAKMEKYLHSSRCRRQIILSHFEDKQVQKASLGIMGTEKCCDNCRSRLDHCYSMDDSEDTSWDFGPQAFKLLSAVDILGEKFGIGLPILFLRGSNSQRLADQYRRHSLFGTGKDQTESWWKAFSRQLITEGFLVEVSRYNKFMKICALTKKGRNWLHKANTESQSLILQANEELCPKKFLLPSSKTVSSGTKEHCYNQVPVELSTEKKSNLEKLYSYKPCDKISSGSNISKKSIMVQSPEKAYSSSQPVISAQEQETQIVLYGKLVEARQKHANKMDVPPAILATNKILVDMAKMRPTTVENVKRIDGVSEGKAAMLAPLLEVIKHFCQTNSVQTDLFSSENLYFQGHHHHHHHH
row,SMILES,IC50 [µM]
1,"O=C(Cc1cccc(-n2cccc2)c1)N(Cc1ccncc1)C1C=CS(=O)(=O)C1 (centres unmarked) [I-528, N-(1,1-dioxo-2,3-dihydro-1lambda6-thiophen-3-yl)-N-[(pyridin-4-yl)methyl]-2-[3-(1H-pyrrol-1-yl)phenyl]acetamide]",> 50
2,"Cc1c(CC(=O)N(Cc2ccncc2)C2C=CS(=O)(=O)C2)c(=O)[nH]c2ccccc12 (centres unmarked) [I-418, N-(1,1-dioxo-2,3-dihydro-1lambda6-thiophen-3-yl)-2-(4-methyl-2-oxo-1,2-dihydroquinolin-3-yl)-N-[(pyridin-4-yl)methyl]acetamide]",> 50
3,"O=C(Cc1ccc(-n2cccc2)cc1)N(Cc1cccc(F)c1F)C1C=CS(=O)(=O)C1 (centres unmarked) [I-221, N-[(2,3-difluorophenyl)methyl]-N-(1,1-dioxo-2,3-dihydro-1lambda6-thiophen-3-yl)-2-[4-(1H-pyrrol-1-yl)phenyl]acetamide]",0.5 to 5
4,"CC(C)(O)c1cc(CN(C(=O)Cn2cc(-c3cc(F)c(F)c(F)c3)cn2)C2C=CS(=O)(=O)C2)ccn1 (single isomer, unassigned) [I-1]",< 0.5
5,"COc1cc(CN(C(=O)Cc2ccc(-c3ccc(F)cc3O)nc2)C2C=CS(=O)(=O)C2)ccn1 (centres unmarked) [I-194, N-(1,1-dioxido-2,3-dihydrothiophen-3-yl)-2-(6-(4-fluoro-2-hydroxyphenyl)pyridin-3-yl)-N-((2-methoxypyridin-4-yl)methyl)acetamide]",5 to 10
6,"O=C(Cc1cccc(C2CC2)c1)N(Cc1ccncc1)C1C=CS(=O)(=O)C1 (centres unmarked) [I-437, 2-(3-cyclopropylphenyl)-N-(1,1-dioxo-2,3-dihydro-1lambda6-thiophen-3-yl)-N-[(pyridin-4-yl)methyl]acetamide]",> 50
7,"O=C(Cc1ccc(-c2cccc(F)c2)cc1)N(Cc1ccncc1)C1C=CS(=O)(=O)C1 (centres unmarked) [I-188, N-(1,1-dioxo-2,3-dihydro-1lambda6-thiophen-3-yl)-2-{3′-fluoro-[1,1′-biphenyl]-4-yl}-N-[(pyridin-4-yl)methyl]acetamide]",0.5 to 5
8,"O=C(Cn1ccc(-c2ccccc2)n1)N(Cc1ccncc1)C1C=CS(=O)(=O)C1 (centres unmarked) [I-450, N-(1,1-dioxo-2,3-dihydro-1lambda6-thiophen-3-yl)-2-(3-phenyl-1H-pyrazol-1-yl)-N-[(pyridin-4-yl)methyl]acetamide]",> 50
9,"Cc1csc(CN(C(=O)Cc2ccc(-n3cccc3)cc2)C2C=CS(=O)(=O)C2)n1 (centres unmarked) [I-189, N-(1,1-dioxo-2,3-dihydro-1lambda6-thiophen-3-yl)-N-[(4-methyl-1,3-thiazol-2-yl)methyl]-2-[4-(1H-pyrrol-1-yl)phenyl]acetamide]",0.5 to 5
10,"CC(C)(O)c1cc(CN(C(=O)Cn2cc(-c3ccc(F)c(F)c3)cn2)[C@@H]2C=CS(=O)(=O)C2)ccn1 [I-6, (R)-2-(4-(3,4-difluorophenyl)-1H-pyrazol-1-yl)-N-(1,1-dioxido-2,3-dihydrothiophen-3-yl)-N-((2-(2-hydroxypropan-2-yl)pyridin-4-yl)methyl)acetamide]",< 0.5
11,"O=C(Cc1ccc(OC2CCC2)cc1)N(Cc1ccncc1)C1C=CS(=O)(=O)C1 (centres unmarked) [I-463, 2-(4-cyclobutoxyphenyl)-N-(1,1-dioxo-2,3-dihydro-1lambda6-thiophen-3-yl)-N-[(pyridin-4-yl)methyl]acetamide]",> 50
12,"COc1ccc(CN(C(=O)Cc2ccc(-n3cccc3)cc2)C2C=CS(=O)(=O)C2)cc1 (centres unmarked) [I-219, N-(1,1-dioxo-2,3-dihydro-1lambda6-thiophen-3-yl)-N-[(4-methoxyphenyl)methyl]-2-[4-(1H-pyrrol-1-yl)phenyl]acetamide]",5 to 10
13,"O=C(Cc1ccc(C(F)(F)F)cc1F)N(Cc1ccncc1)C1C=CS(=O)(=O)C1 (centres unmarked) [I-260, N-(1,1-dioxo-2,3-dihydro-1lambda6-thiophen-3-yl)-2-[2-fluoro-4-(trifluoromethyl)phenyl]-N-[(pyridin-4-yl)methyl]acetamide]",5 to 10
14,"CC(C)(O)c1cc(CN(C(=O)Cc2ncc(-c3ccc(F)c(F)c3)cc2F)C2C=CS(=O)(=O)C2)ccn1 (centres unmarked) [I-82, 2-[5-(3,4-difluorophenyl)-3-fluoropyridin-2-yl]-N-(1,1-dioxo-2,3-dihydro-1lambda6-thiophen-3-yl)-N-{[2-(2-hydroxypropan-2-yl)pyridin-4-yl]methyl}acetamide]",< 0.5
15,"O=C(Cn1cc(-c2ccccc2)cn1)N(Cc1ccncc1)C1C=CS(=O)(=O)C1 (single isomer, unassigned) [I-133]",0.5 to 5
16,"O=C(Cc1cnn(Cc2ccccc2)c1)N(Cc1ccncc1)C1C=CS(=O)(=O)C1 (centres unmarked) [I-544, 2-(1-benzyl-1H-pyrazol-4-yl)-N-(1,1-dioxo-2,3-dihydro-1lambda6-thiophen-3-yl)-N-[(pyridin-4-yl)methyl]acetamide]",> 50
17,"CC(C)(O)c1cc(CN(C(=O)Cn2cc(-c3ccc(F)cc3)cn2)C2C=CS(=O)(=O)C2)ccn1 (centres unmarked) [I-42, N-(1,1-dioxo-2,3-dihydro-1lambda6-thiophen-3-yl)-2-[4-(4-fluorophenyl)-1H-pyrazol-1-yl]-N-{[2-(2-hydroxypropan-2-yl)pyridin-4-yl]methyl}acetamide]",< 0.5
18,"O=C(C(c1ccc(-c2ccc(F)cc2)cc1)N1CCCC1=O)N(Cc1ccncc1)C1C=CS(=O)(=O)C1 (centres unmarked) [I-328, N-(1,1-dioxo-2,3-dihydro-1lambda6-thiophen-3-yl)-2-{4′-fluoro-[1,1′-biphenyl]-4-yl}-2-(2-oxopyrrolidin-1-yl)-N-[(pyridin-4-yl)methyl]acetamide]",10 to 50

# Continued, values first:
row,IC50 [µM],SMILES
1,> 50,"O=C([C@@H]1CC[C@@H](c2ccccc2)C1)N(Cc1ccncc1)C1C=CS(=O)(=O)C1 (mixture of isomers) [I-655, rac-(1R,3R)-N-(1,1-dioxo-2,3-dihydro-1lambda6-thiophen-3-yl)-3-phenyl-N-[(pyridin-4-yl)methyl]cyclopentane-1-carboxamide]"
2,0.5 to 5,"COc1cc(CN(C(=O)Cn2ncc3cc(OC(F)(F)F)ccc32)[C@@H]2C=CS(=O)(=O)C2)ccn1 [I-721, N-[(3R)-1,1-dioxo-2,3-dihydro-1lambda6-thiophen-3-yl]-N-[(2-methoxypyridin-4-yl)methyl]-2-[5-(trifluoromethoxy)-1H-indazol-1-yl]acetamide]"
3,< 0.5,"COc1cc(CN(C(=O)C(O/C=C/S(C)(=O)=O)c2ccc(-c3ccc(F)c(F)c3)cc2F)[C@@H]2C=CS(=O)(=O)C2)ccn1 (single isomer, unassigned) [I-804, (2R*)-N-[(3R)-1,1-dioxo-2,3-dihydro-1lambda6-thiophen-3-yl]-2-{[(1E)-2-methanesulfonylethenyl]oxy}-N-[(2-methoxypyridin-4-yl)methyl]-2-{3,3′,4′-trifluoro-[1,1′-biphenyl]-4-yl}acetamide]"
4,0.5 to 5,"COc1cc(CN(C(=O)C(c2ccc(-c3ccc(F)c(F)c3)cc2F)n2cc(C#N)cn2)[C@@H]2C=CS(=O)(=O)C2)ccn1 (single isomer, unassigned) [I-712, (2R*)-2-(4-cyano-1H-pyrazol-1-yl)-N-[(3R)-1,1-dioxo-2,3-dihydro-1lambda6-thiophen-3-yl]-N-[(2-methoxypyridin-4-yl)methyl]-2-{3,3′,4′-trifluoro-[1,1′-biphenyl]-4-yl}acetamide]"
5,> 50,"O=C(C1CC(c2ccncc2)=NO1)N(Cc1ccncc1)C1C=CS(=O)(=O)C1 (centres unmarked) [I-621, N-(1,1-dioxo-2,3-dihydro-1lambda6-thiophen-3-yl)-3-(pyridin-4-yl)-N-[(pyridin-4-yl)methyl]-4,5-dihydro-1,2-oxazole-5-carboxamide]"
6,> 50,"COc1cc(CN(C(=O)Cn2cnc(-c3ccc(F)cc3)c2)[C@@H]2C=CS(=O)(=O)C2)ccn1 [I-597, N-[(3R)-1,1-dioxo-2,3-dihydro-1lambda6-thiophen-3-yl]-2-[4-(4-fluorophenyl)-1H-imidazol-1-yl]-N-[(2-methoxypyridin-4-yl)methyl]acetamide]"
7,0.5 to 5,"COc1cc(CN(C(=O)C(c2ccc(-c3ccc(F)c(F)c3)cc2F)n2cc(C(F)F)cn2)[C@@H]2C=CS(=O)(=O)C2)ccn1 (stereo partly drawn) [I-705, 2-[4-(difluoromethyl)-1H-pyrazol-1-yl]-N-[(3R)-1,1-dioxo-2,3-dihydro-1lambda6-thiophen-3-yl]-N-[(2-methoxypyridin-4-yl)methyl]-2-{3,3′,4′-trifluoro-[1,1′-biphenyl]-4-yl}acetamide]"
8,0.5 to 5,"CC(C)(O)c1cc(CN(C(=O)Cn2ncc3cc(S(F)(F)(F)(F)F)ccc32)C2C=CS(=O)(=O)C2)ccn1 (single isomer, unassigned) [I-727]"
9,0.5 to 5,"COc1cc(CN(C(=O)C(OCC2CCCN(S(C)(=O)=O)C2)c2ccc(-c3ccc(F)c(F)c3)cc2F)[C@@H]2C=CS(=O)(=O)C2)ccn1 (stereo partly drawn) [I-809, N-[(3R)-1,1-dioxo-2,3-dihydro-1lambda6-thiophen-3-yl]-2-[(1-methanesulfonylpiperidin-3-yl)methoxy]-N-[(2-methoxypyridin-4-yl)methyl]-2-{3,3′,4′-trifluoro-[1,1′-biphenyl]-4-yl}acetamide]"
10,< 0.5,"O=C(Cn1cc(-c2ccc(F)c(F)c2)cn1)N(Cc1ccnc(N2CCC2)c1)C1C=CS(=O)(=O)C1 (centres unmarked) [I-760, N-{[2-(azetidin-1-yl)pyridin-4-yl]methyl}-2-[4-(3,4-difluorophenyl)-1H-pyrazol-1-yl]-N-(1,1-dioxo-2,3-dihydro-1lambda6-thiophen-3-yl)acetamide]"

# Same assay, conditions: ADP-Glo_hWRN_IC50, 0.15 nM WRN, 5 μM ATP, 0.1 nM DNA duplex, 15 min preincubation, 60 min at 25° C., pH 7.5, 1% DMSO
row,IC50 [µM],SMILES
1,> 50,"O=C(CN1CC=C(c2ccccc2)CC1)N(Cc1ccncc1)C1C=CS(=O)(=O)C1 (centres unmarked) [I-478, N-(1,1-dioxo-2,3-dihydro-1lambda6-thiophen-3-yl)-2-(4-phenyl-1,2,3,6-tetrahydropyridin-1-yl)-N-[(pyridin-4-yl)methyl]acetamide]"

# Source: patent US20260297070A1, “CYCLIC [COMPOUND LEFT OUT] WRN INHIBITORS” (Nimbus Wadjet, Inc., priority 2023, published 2026)
